Key:
Assay type in all cases: cell-based
[1] = test system: rat cerebellar granule neurons; assay: Electrophysiology: voltage-clamped whole-cell patch recordings of currents induced by laminin-1-derived peptides and fusion proteins; settings: whole-cell patch clamp, neurons on laminin-1 substratum
Excerpt: Sixteen-day pregnant Sprague-Dawley female rats were obtained from Taconic Farms, and maintained at the animal facility of National Institute of Alcohol Abuse and Alcoholism (NTH), fed with NTH-31 diet, containing 20,000 IU/kg vitamin A after autoclaving. The rats were allowed to give birth, and cerebellar tissues of 3-day-old female pups were aseptically isolated as described previously (Matsuzawa et al., 1996a). A suspension of single cells was obtained by trypsinizing the cerebella as described elsewhere (Liesi and Wright, 1996), after which 10^5 cells were plated on 22 mm glass coverslip pre-coated with laminin-1. The cells were incubated in an atmosphere of 95% air/5% CO2 at +37° C. in RPMI 1640 culture medium supplemented with penicillin and streptomycin and 200 μM L-glutamine. After 24 hrs, the cells were used for electrophysiology.
Recordings were done at room temperature using a List EPC-7 patch-clamp amplifier in voltage-clamped whole-cell patch configuration as described previously (Liesi and Wright, 1996). Pipettes were pulled from borosilicate glass and lightly fire polished. Experiments were performed at room temperature. Whole-cell currents were recorded on a Gould 2400S strip chart recorder. Cell membrane potential was clamped at −40 mV unless otherwise noted. All bath solutions were applied through pinch-valves that controlled the flow from multiple reservoirs to a single 200 μm ID barrel of fused silica. Standard bath solution was RPMI 1640, buffered with 10 mM HEPES (pH 7.4). The standard pipette solution contained (in mM): CsMeSO4 100, CsCl 15, BAPTA 5, HEPES 10 (pH KOH-adjusted to 7.2). Tests for reversal potentials were conducted in low K^+ bath solution containing (in mM): NaCl 150, KCl 5, CaCl2 1, HEPES 10 (pH adjusted to 7.2 with NaOH) and a high K^+ bath solution, containing (in mM): NaCl 115, KCl 40, CaCl2 1, HEPES 10 (pH adjusted to 7.2 with NaOH). All bath solutions contained 300 nM TTX. […] Nernst reversal potentials were calculated according to Hille (1992). […]

[2] = test system: human embryonic neocortical neurons; assay: Survival of human embryonic neocortical neurons on injured glial cells of the human spinal cord; settings: 1 μg/ml soluble peptide, 72 hrs, vs lesion control
Excerpt: The CNS tissues were first placed in cold saline. The spinal cord tissues were identified under a stereomicroscope, and carefully freed of meninges. To obtain monolayer cultures of human spinal cord glial cells, the cells were dissociated by mechanical trituration using a Pasteur-pipette, and placed in Petri dishes (Corning, N.Y., USA) containing 10% fetal calf serum (Hyclone, Logan, UH) in DMEM-F12 (Gibco, U.K.) supplemented with penicillin and streptomycin as described (Liesi et al. 2001).
Human embryonic spinal cord glial cells were cultured till confluency in 10% fetal bovine serum as described (Liesi et al., 2001). The confluent cultures were trypsinized and cells replated at 100 000 cells/22 mm glass coverslip, and grown till confluency. The confluent cultures were changed into normal adult human serum, and injured by using a 18 G gauge sterile needle. The KDI peptide was added at 1 μg/ml (3 μM) and at 10 μg/ml (30 μM) concentration and the P1543 peptide (p20) was added at a concentration of 1 μM, and 50-100 000 freshly isolated human embryonic neocortical neurons were added on the glial cells. The control cultures had neurons added either without the peptide or the lesion. The cells were cultured for 72 hrs in 5% CO2/95% air at +37° C., and fixed for quantitation of neurons and measurement of their neuritic lengths. The neurons on glial monolayers were visualized by immunostaining using mouse monoclonal antibodies against a neuron-specific tubulin isoform (TUJ1). The results were evaluated by counting neurons in six random fields on 3 different coverslip per experiment. In this way, more than 300 neurons were counted per experiment. Statistical analysis of the results was performed using one-way analysis of Varians (ANOVA) and Student-Newman-Keuls multiple comparisons test on the Instat (v2.03) program (GraphPad, San Diego, Calif.).

human CNS neurons = assay: Attachment and neurite outgrowth of human embryonic CNS neurons on synthetic peptides coupled to glass; settings: 1 μg/ml, peptide coupled to glass, 24 hrs
Method: The cells were dissociated by trituration in a sterile culture medium (RPMI 1640) containing penicillin (100 U/ml), streptomycin (100 μg/ml) and 200 μM L-glutamine. The dissociated cells were plated on glass coverslips pre-coated (Liesi et al., 1989) with mouse laminin-1 (Boehringer-Mannheim, Germany) or with the peptides KDI-gc and RDIAEIIKDI-gc (SEQ ID NO: 1), as described elsewhere (Matsuzawa et al., 1996b). The peptides were from the Multiple Peptide Systems (La Jolla, Calif.). The cultures were maintained for 24 hrs, fixed in 2% paraformaldehyde, and processed for immunocytochemistry.
Immunocytochemistry for neuron specific tubulin isoform TUJ1 was performed as described elsewhere (Liesi et al., 2001). In short, the cells were permeabilized in methanol for 5 min at −20° C., washed in PBS and incubated with monoclonal TUJ1-antibodies for 1 hr at room temperature. The antibody was of high specificity and was used at 1:500 dilution. After immunocytochemistry, the coverslips were mounted in PBS:glycerol (1:1) and viewed with Olympus Provis fluorescence microscope with appropriate filter combinations.

| Substance | induction of currents in cerebellar granule neurons [1] | attachment and neurite outgrowth of neocortical neurons on lesioned spinal cord glial cells [2] | attachment and neurite outgrowth of human CNS neurons (human CNS neurons) |
| --- | --- | --- | --- |
| EIIKDI [6-amino acid peptide truncated from P1543] | induced currents | – | – |
| RDIAEIIKDI [P1543, C-terminal neurite outgrowth decapeptide of the γ1-chain of laminin-1] | induced electrical currents | significant (p<0.001) improvement | supported attachment and neurite outgrowth |
